In PMC10436550, “Subacute toxicity evaluations of LPM3480392 in rats, a full µ-opioid receptor biased agonist” (Frontiers in Pharmacology, 2023):
Like-named read-outs stand apart in the source and are kept apart here.

Assay: Toxicokinetics, plasma LPM3480392 after intravenous administration
Type: in vivo, Sprague Dawley (SD) rats
Settings: Sprague-Dawley, rat, plasma; for concentration at 2 min: intravenous; for AUC(0-t): iv, read-out: AUC0–12h
Protocol: Blood samples from animals in LPM3480392 groups were collected at predose and 2 min, 30 min, 1 h and 4 h postdose of the 1st dosing on Days 1 and 28; at 2 min and 4 h postdose of the 2nd dosing on Days 1 and 28; at 2 min, 1 h and 4 h postdose the 3rd dosing on Days 1 and 28. Animals in control group were sampled at predose and 2 min postdose of the 1st dosing on Days 1 and 28. Approximately 0.36 mL of blood was collected from the jugular vein of surviving TK animals at each time point. Whole blood samples were anticoagulated with EDTA-K2 and centrifuged at 2°C–8°C and 1800 × g for 10 min. The harvested plasma was stored below −66°C before the analysis. LC-MS/MS methods (liquid chromatograph/mass spectrometer) were used to detect concentrations of LPM3480392 at each time point. TK parameters (AUC, Cmax, Tmax) were calculated by Phoenix WinNonlin (Pharsight) 8.2. The detection instruments include ultra-performance liquid chromatography (Waters, United States ACQUITY UPLC I -CLASS) and triple quadrupole tandem mass spectrometer (Waters, United States, Xevo TQ-S).

In the case of `Fc1ccc([C@]2(CCNCc3cccc(Cl)c3)CCO[C@]3(CCOC3)C2)nc1` [LPM3480392], the concentration at 2 min (female, 1.2 mg/kg/day, 1.2 mg/kg/day iv, 1st dosing day, F, read-out: C2min (The 2nd dosing)) is reported as 0.169 ± 0.0262 µg/mL, the concentration at 2 min (female, 1.2 mg/kg/day, 1.2 mg/kg/day iv, 1st dosing day, F, read-out: C2min (The 3rd dosing)) is reported as 0.157 ± 0.0255 µg/mL and the concentration at 2 min (female, 1.2 mg/kg/day, 1.2 mg/kg/day iv, 28th dosing day, F, read-out: C2min (The 1st dosing)) is reported as 0.187 ± 0.02 µg/mL. The concentration at 2 min (female, 1.2 mg/kg/day, 1.2 mg/kg/day iv, 28th dosing day, F, read-out: C2min (The 2nd dosing)) was 0.167 ± 0.0141 µg/mL, the concentration at 2 min (female, 1.2 mg/kg/day, 1.2 mg/kg/day iv, 28th dosing day, F, read-out: C2min (The 3rd dosing)) was 0.166 ± 0.0161 µg/mL and the concentration at 2 min (female, 2.4 mg/kg/day, 2.4 mg/kg/day iv, 1st dosing day, F, read-out: C2min (The 1st dosing)) was 0.331 ± 0.0251 µg/mL. For the same molecule, the concentration at 2 min (female, 2.4 mg/kg/day, 2.4 mg/kg/day iv, 1st dosing day, F, read-out: C2min (The 2nd dosing)) was 0.292 ± 0.0336 µg/mL, the concentration at 2 min (female, 2.4 mg/kg/day, 2.4 mg/kg/day iv, 1st dosing day, F, read-out: C2min (The 3rd dosing)) was 0.234 ± 0.0521 µg/mL and the concentration at 2 min (female, 2.4 mg/kg/day, 2.4 mg/kg/day iv, 28th dosing day, F, read-out: C2min (The 1st dosing)) was 0.356 ± 0.0819 µg/mL. The concentration at 2 min (female, 2.4 mg/kg/day, 2.4 mg/kg/day iv, 28th dosing day, F, read-out: C2min (The 2nd dosing)) was 0.387 ± 0.0549 µg/mL, the concentration at 2 min (female, 2.4 mg/kg/day, 2.4 mg/kg/day iv, 28th dosing day, F, read-out: C2min (The 3rd dosing)) was 0.323 ± 0.0207 µg/mL and the AUC(0-t) (female, 0.6 mg/kg/day, 0.6 mg/kg/day iv, 1st dosing day, F) was 0.319 ± 0.056 µg·h/mL. The AUC(0-t) (female, 0.6 mg/kg/day, 0.6 mg/kg/day iv, 28th dosing day, F) was 0.331 ± 0.0483 µg·h/mL, the AUC(0-t) (female, 1.2 mg/kg/day, 1.2 mg/kg/day iv, 1st dosing day, F) was 0.719 ± 0.122 µg·h/mL and the AUC(0-t) (female, 1.2 mg/kg/day, 1.2 mg/kg/day iv, 28th dosing day, F) was 0.735 ± 0.0634 µg·h/mL. It also gave an AUC(0-t) (female, 2.4 mg/kg/day, 2.4 mg/kg/day iv, 1st dosing day, F) of 1.31 ± 0.0579 µg·h/mL, an AUC(0-t) (female, 2.4 mg/kg/day, 2.4 mg/kg/day iv, 28th dosing day, F) of 1.58 ± 0.129 µg·h/mL and a concentration at 2 min (male, 0.6 mg/kg/day, 0.6 mg/kg/day iv, 1st dosing day, M, read-out: C2min (The 1st dosing)) of 0.0981 ± 0.0213 µg/mL. For the same molecule, the concentration at 2 min (male, 0.6 mg/kg/day, 0.6 mg/kg/day iv, 1st dosing day, M, read-out: C2min (The 2nd dosing)) was 0.0705 ± 0.0147 µg/mL, the concentration at 2 min (male, 0.6 mg/kg/day, 0.6 mg/kg/day iv, 1st dosing day, M, read-out: C2min (The 3rd dosing)) was 0.0647 ± 0.0108 µg/mL and the concentration at 2 min (male, 0.6 mg/kg/day, 0.6 mg/kg/day iv, 28th dosing day, M, read-out: C2min (The 1st dosing)) was 0.0843 ± 0.0202 µg/mL. It also gave a concentration at 2 min (male, 0.6 mg/kg/day, 0.6 mg/kg/day iv, 28th dosing day, M, read-out: C2min (The 2nd dosing)) of 0.0779 ± 0.0082 µg/mL, a concentration at 2 min (male, 0.6 mg/kg/day, 0.6 mg/kg/day iv, 28th dosing day, M, read-out: C2min (The 3rd dosing)) of 0.0794 ± 0.00761 µg/mL and a concentration at 2 min (male, 1.2 mg/kg/day, 1.2 mg/kg/day iv, 1st dosing day, M, read-out: C2min (The 1st dosing)) of 0.17 ± 0.0107 µg/mL. It also gave a concentration at 2 min (male, 1.2 mg/kg/day, 1.2 mg/kg/day iv, 1st dosing day, M, read-out: C2min (The 2nd dosing)) of 0.142 ± 0.0289 µg/mL, a concentration at 2 min (male, 1.2 mg/kg/day, 1.2 mg/kg/day iv, 1st dosing day, M, read-out: C2min (The 3rd dosing)) of 0.139 ± 0.0292 µg/mL and a concentration at 2 min (male, 1.2 mg/kg/day, 1.2 mg/kg/day iv, 28th dosing day, M, read-out: C2min (The 1st dosing)) of 0.171 ± 0.0262 µg/mL. It also gave a concentration at 2 min (male, 1.2 mg/kg/day, 1.2 mg/kg/day iv, 28th dosing day, M, read-out: C2min (The 2nd dosing)) of 0.113 ± 0.0091 µg/mL, a concentration at 2 min (male, 1.2 mg/kg/day, 1.2 mg/kg/day iv, 28th dosing day, M, read-out: C2min (The 3rd dosing)) of 0.131 ± 0.0187 µg/mL and a concentration at 2 min (male, 2.4 mg/kg/day, 2.4 mg/kg/day iv, 1st dosing day, M, read-out: C2min (The 1st dosing)) of 0.328 ± 0.0338 µg/mL. The concentration at 2 min (male, 2.4 mg/kg/day, 2.4 mg/kg/day iv, 1st dosing day, M, read-out: C2min (The 2nd dosing)) was 0.289 ± 0.0105 µg/mL, the concentration at 2 min (male, 2.4 mg/kg/day, 2.4 mg/kg/day iv, 1st dosing day, M, read-out: C2min (The 3rd dosing)) was 0.225 ± 0.0409 µg/mL and the concentration at 2 min (male, 2.4 mg/kg/day, 2.4 mg/kg/day iv, 28th dosing day, M, read-out: C2min (The 1st dosing)) was 0.346 ± 0.046 µg/mL. The concentration at 2 min (male, 2.4 mg/kg/day, 2.4 mg/kg/day iv, 28th dosing day, M, read-out: C2min (The 2nd dosing)) was 0.259 ± 0.0683 µg/mL, the concentration at 2 min (male, 2.4 mg/kg/day, 2.4 mg/kg/day iv, 28th dosing day, M, read-out: C2min (The 3rd dosing)) was 0.317 ± 0.0479 µg/mL and the AUC(0-t) (male, 0.6 mg/kg/day, 0.6 mg/kg/day iv, 1st dosing day, M) was 0.31 ± 0.0356 µg·h/mL. For the same molecule, the AUC(0-t) (male, 0.6 mg/kg/day, 0.6 mg/kg/day iv, 28th dosing day, M) was 0.366 ± 0.0147 µg·h/mL, the AUC(0-t) (male, 1.2 mg/kg/day, 1.2 mg/kg/day iv, 1st dosing day, M) was 0.607 ± 0.0834 µg·h/mL and the AUC(0-t) (male, 1.2 mg/kg/day, 1.2 mg/kg/day iv, 28th dosing day, M) was 0.625 ± 0.0289 µg·h/mL. The AUC(0-t) (male, 2.4 mg/kg/day, 2.4 mg/kg/day iv, 1st dosing day, M) was 1.19 ± 0.0871 µg·h/mL and the AUC(0-t) (male, 2.4 mg/kg/day, 2.4 mg/kg/day iv, 28th dosing day, M) was 1.4 ± 0.168 µg·h/mL.
